Reference: PubChem BioAssay (NCI)
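Results reflect a 48-hour exposure of cells in 96-well plates to compound at five concentrations. TGI: total growth inhibition.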

Legend:
Test in all cases: NCI tumour cell line growth inhibition, 48 h
SF-268 CNS = test system: SF-268 CNS
A549 NSCLC = test system: A549 NSCLC
HOP-92 NSCLC = test system: HOP-92 NSCLC
RPMI-8226 leukemia = test system: RPMI-8226 leukemia
U251 CNS = test system: U251 CNS
M14 melanoma = test system: M14 melanoma
SNB-19 CNS = test system: SNB-19 CNS
EKVX NSCLC = test system: EKVX NSCLC
HCC-2998 colon = test system: HCC-2998 colon
SNB-75 CNS = test system: SNB-75 CNS
CCRF-CEM leukemia = test system: CCRF-CEM leukemia
IGROV1 ovarian = test system: IGROV1 ovarian
HT29 colon = test system: HT29 colon
SN12C renal = test system: SN12C renal
KM20L2 colon = test system: KM20L2 colon
OVCAR-5 ovarian = test system: OVCAR-5 ovarian
UACC-257 melanoma = test system: UACC-257 melanoma
SK-MEL-2 melanoma = test system: SK-MEL-2 melanoma
SK-OV-3 ovarian = test system: SK-OV-3 ovarian
M19-MEL melanoma = test system: M19-MEL melanoma
NCI-H226 lung = test system: NCI-H226 lung
SF-539 CNS = test system: SF-539 CNS
SR leukemia = test system: SR leukemia
HOP-18 NSCLC = test system: HOP-18 NSCLC
TK-10 renal = test system: TK-10 renal
OVCAR-4 ovarian = test system: OVCAR-4 ovarian
K-562 leukemia = test system: K-562 leukemia
NCI-H23 lung = test system: NCI-H23 lung
ACHN renal = test system: ACHN renal
A498 renal = test system: A498 renal
LXFL 529 NSCLC = test system: LXFL 529 NSCLC
NCI-H460 lung = test system: NCI-H460 lung
OVCAR-3 ovarian = test system: OVCAR-3 ovarian
HL-60(TB) leukemia = test system: HL-60(TB) leukemia
DLD-1 colon = test system: DLD-1 colon
HCT-15 colon = test system: HCT-15 colon
SK-MEL-5 melanoma = test system: SK-MEL-5 melanoma
RXF 393 renal = test system: RXF 393 renal
DMS 273 small cell lung = test system: DMS 273 small cell lung
CAKI-1 renal = test system: CAKI-1 renal
UACC-62 melanoma = test system: UACC-62 melanoma
HCT-116 colon = test system: HCT-116 colon
SW-620 colon = test system: SW-620 colon
786-0 renal = test system: 786-0 renal
MALME-3M melanoma = test system: MALME-3M melanoma
SF-295 CNS = test system: SF-295 CNS
HOP-62 NSCLC = test system: HOP-62 NSCLC
NCI-H522 lung = test system: NCI-H522 lung
OVCAR-8 ovarian = test system: OVCAR-8 ovarian
MOLT-4 leukemia = test system: MOLT-4 leukemia
DMS 114 small cell lung = test system: DMS 114 small cell lung
SK-MEL-28 melanoma = test system: SK-MEL-28 melanoma
UO-31 renal = test system: UO-31 renal
LOX IMVI melanoma = test system: LOX IMVI melanoma
KM12 colon = test system: KM12 colon
SNB-78 CNS = test system: SNB-78 CNS
COLO 205 colon = test system: COLO 205 colon

In the case of `Cc1ccc(-c2cc(=O)c3cc4c(cc3[nH]2)OCO4)cc1`, the TGI (SF-268 CNS) is reported as over 72.1 µM, the TGI (A549 NSCLC) is reported as over 63.4 µM and the TGI (HOP-92 NSCLC) is reported as 71.2 µM. For the same compound, the TGI (RPMI-8226 leukemia) was over 100 µM, the TGI (U251 CNS) was 10.5 µM and the TGI (M14 melanoma) was over 22 µM. For the same compound, the TGI (SNB-19 CNS) was over 100 µM, the TGI (EKVX NSCLC) was over 100 µM and the TGI (HCC-2998 colon) was 5.56 µM. It also gave a TGI (SNB-75 CNS) of 35 µM, a TGI (CCRF-CEM leukemia) of over 100 µM and a TGI (IGROV1 ovarian) of over 100 µM. It also gave a TGI (HT29 colon) of over 100 µM, a TGI (SN12C renal) of over 100 µM and a TGI (KM20L2 colon) of 3.43 µM. For the same compound, the TGI (OVCAR-5 ovarian) was over 82.3 µM, the TGI (UACC-257 melanoma) was over 100 µM and the TGI (SK-MEL-2 melanoma) was 14.2 µM. For the same compound, the TGI (SK-OV-3 ovarian) was 28.9 µM, the TGI (M19-MEL melanoma) was over 100 µM and the TGI (NCI-H226 lung) was 8.66 µM. The TGI (SF-539 CNS) was 4.54 µM, the TGI (SR leukemia) was over 40.4 µM and the TGI (HOP-18 NSCLC) was 35.2 µM. For the same compound, the TGI (TK-10 renal) was over 60.6 µM, the TGI (OVCAR-4 ovarian) was over 100 µM and the TGI (K-562 leukemia) was over 100 µM. It also gave a TGI (NCI-H23 lung) of 3.29 µM, a TGI (ACHN renal) of over 100 µM and a TGI (A498 renal) of 10.5 µM. It also gave a TGI (LXFL 529 NSCLC) of 21.8 µM, a TGI (NCI-H460 lung) of 3.82 µM and a TGI (OVCAR-3 ovarian) of over 100 µM. It also gave a TGI (HL-60(TB) leukemia) of 2.77 µM, a TGI (DLD-1 colon) of over 100 µM and a TGI (HCT-15 colon) of 6.64 µM. The TGI (SK-MEL-5 melanoma) was 5.6 µM, the TGI (RXF 393 renal) was 9.94 µM and the TGI (DMS 273 small cell lung) was over 25 µM. It also gave a TGI (CAKI-1 renal) of over 100 µM, a TGI (UACC-62 melanoma) of over 39.1 µM and a TGI (HCT-116 colon) of over 100 µM. The TGI (SW-620 colon) was over 100 µM, the TGI (786-0 renal) was 14.6 µM and the TGI (MALME-3M melanoma) was over 33.4 µM. It also gave a TGI (SF-295 CNS) of 11.6 µM, a TGI (HOP-62 NSCLC) of 20.5 µM and a TGI (NCI-H522 lung) of 4.83 µM. The TGI (OVCAR-8 ovarian) was over 100 µM, the TGI (MOLT-4 leukemia) was over 42.6 µM and the TGI (DMS 114 small cell lung) was over 100 µM. The TGI (SK-MEL-28 melanoma) was over 100 µM, the TGI (UO-31 renal) was over 100 µM and the TGI (LOX IMVI melanoma) was over 100 µM. For the same compound, the TGI (KM12 colon) was over 100 µM.
For `CCOC(=O)/C=C1/Oc2ccccc2C1(C)O` (stereo not given), the TGI (SF-268 CNS) was over 100 µM, the TGI (A549 NSCLC) was over 100 µM and the TGI (HOP-92 NSCLC) was over 100 µM. The TGI (RPMI-8226 leukemia) was over 100 µM, the TGI (U251 CNS) was over 100 µM and the TGI (M14 melanoma) was over 100 µM. It also gave a TGI (SNB-19 CNS) of over 100 µM, a TGI (EKVX NSCLC) of over 100 µM and a TGI (HCC-2998 colon) of over 100 µM. The TGI (SNB-75 CNS) was over 100 µM, the TGI (CCRF-CEM leukemia) was over 100 µM and the TGI (IGROV1 ovarian) was over 100 µM. For the same compound, the TGI (HT29 colon) was over 100 µM, the TGI (SN12C renal) was over 100 µM and the TGI (KM20L2 colon) was over 100 µM. It also gave a TGI (OVCAR-5 ovarian) of over 100 µM, a TGI (UACC-257 melanoma) of over 100 µM and a TGI (SK-MEL-2 melanoma) of over 100 µM. It also gave a TGI (SK-OV-3 ovarian) of over 100 µM, a TGI (M19-MEL melanoma) of over 100 µM and a TGI (NCI-H226 lung) of over 100 µM. It also gave a TGI (HOP-18 NSCLC) of over 100 µM, a TGI (TK-10 renal) of over 100 µM and a TGI (OVCAR-4 ovarian) of over 100 µM. The TGI (K-562 leukemia) was over 100 µM, the TGI (NCI-H23 lung) was over 100 µM and the TGI (ACHN renal) was over 100 µM. It also gave a TGI (A498 renal) of over 100 µM, a TGI (LXFL 529 NSCLC) of over 100 µM and a TGI (NCI-H460 lung) of over 100 µM. For the same compound, the TGI (OVCAR-3 ovarian) was over 100 µM, the TGI (HL-60(TB) leukemia) was over 100 µM and the TGI (DLD-1 colon) was over 100 µM. For the same compound, the TGI (HCT-15 colon) was over 100 µM, the TGI (SK-MEL-5 melanoma) was over 100 µM and the TGI (RXF 393 renal) was over 100 µM. The TGI (DMS 273 small cell lung) was over 100 µM, the TGI (CAKI-1 renal) was over 100 µM and the TGI (UACC-62 melanoma) was over 100 µM. It also gave a TGI (HCT-116 colon) of over 100 µM, a TGI (SW-620 colon) of over 100 µM and a TGI (786-0 renal) of over 100 µM. For the same compound, the TGI (MALME-3M melanoma) was over 100 µM, the TGI (SF-295 CNS) was over 100 µM and the TGI (HOP-62 NSCLC) was over 100 µM. It also gave a TGI (NCI-H522 lung) of over 100 µM, a TGI (OVCAR-8 ovarian) of over 100 µM and a TGI (MOLT-4 leukemia) of over 100 µM. The TGI (SNB-78 CNS) was over 100 µM, the TGI (DMS 114 small cell lung) was over 100 µM and the TGI (SK-MEL-28 melanoma) was over 100 µM. It also gave a TGI (COLO 205 colon) of over 100 µM, a TGI (UO-31 renal) of over 100 µM and a TGI (LOX IMVI melanoma) of over 100 µM. The TGI (KM12 colon) was over 100 µM.
`CC(=O)O[C@]1(C)CCC2C(C)C(=O)OC2C2C(C)[C@@H](O)CC21` (stereo not given in full) showed a TGI (SF-268 CNS) of over 100 µM, a TGI (A549 NSCLC) of over 100 µM and a TGI (HOP-92 NSCLC) of 91.3 µM. The TGI (RPMI-8226 leukemia) was 60.1 µM, the TGI (U251 CNS) was over 100 µM and the TGI (M14 melanoma) was 47.9 µM. The TGI (SNB-19 CNS) was over 100 µM, the TGI (EKVX NSCLC) was over 100 µM and the TGI (HCC-2998 colon) was 58 µM. For the same compound, the TGI (SNB-75 CNS) was over 100 µM, the TGI (CCRF-CEM leukemia) was over 100 µM and the TGI (IGROV1 ovarian) was over 100 µM. It also gave a TGI (HT29 colon) of over 100 µM, a TGI (SN12C renal) of over 100 µM and a TGI (KM20L2 colon) of 71.2 µM. The TGI (OVCAR-5 ovarian) was over 100 µM, the TGI (UACC-257 melanoma) was over 100 µM and the TGI (SK-MEL-2 melanoma) was 58.3 µM. The TGI (SK-OV-3 ovarian) was over 100 µM, the TGI (M19-MEL melanoma) was 57.4 µM and the TGI (NCI-H226 lung) was over 100 µM. For the same compound, the TGI (SF-539 CNS) was over 100 µM, the TGI (SR leukemia) was over 100 µM and the TGI (HOP-18 NSCLC) was over 100 µM. It also gave a TGI (TK-10 renal) of over 100 µM, a TGI (OVCAR-4 ovarian) of over 100 µM and a TGI (K-562 leukemia) of 54.9 µM. For the same compound, the TGI (NCI-H23 lung) was over 100 µM, the TGI (ACHN renal) was over 100 µM and the TGI (A498 renal) was over 100 µM. For the same compound, the TGI (LXFL 529 NSCLC) was 59 µM, the TGI (NCI-H460 lung) was over 100 µM and the TGI (OVCAR-3 ovarian) was 47.3 µM. It also gave a TGI (HL-60(TB) leukemia) of 34.2 µM, a TGI (DLD-1 colon) of over 100 µM and a TGI (HCT-15 colon) of 32.5 µM. The TGI (SK-MEL-5 melanoma) was 89.7 µM, the TGI (RXF 393 renal) was 82.5 µM and the TGI (DMS 273 small cell lung) was 54.5 µM. The TGI (CAKI-1 renal) was over 100 µM, the TGI (UACC-62 melanoma) was 89.5 µM and the TGI (HCT-116 colon) was 50.8 µM. For the same compound, the TGI (SW-620 colon) was 31.2 µM, the TGI (786-0 renal) was over 100 µM and the TGI (MALME-3M melanoma) was over 100 µM. It also gave a TGI (SF-295 CNS) of over 100 µM, a TGI (HOP-62 NSCLC) of 45.2 µM and a TGI (NCI-H522 lung) of 34.4 µM. It also gave a TGI (OVCAR-8 ovarian) of over 100 µM, a TGI (SNB-78 CNS) of over 100 µM and a TGI (SK-MEL-28 melanoma) of over 100 µM. The TGI (COLO 205 colon) was 36.2 µM, the TGI (UO-31 renal) was over 100 µM and the TGI (LOX IMVI melanoma) was 34.2 µM. The TGI (KM12 colon) was over 100 µM.
